The source of these data is patent US20190302100A1, “METHOD FOR PREPARING LIVER PROGENITOR CELLS” (National Cancer Center, priority 2016, published 2019).

The subject of one data set is CYP1A2. In words: Activity of metabolic enzyme CYP1A2 (Luciferin 1A2 kit) in hepatocytes taken out from transplanted cDNA-uPA/SCID mice. Format: cell-based, human. From the text:
After that, cDNA-uPA/SCID mice (2 to 4 M, Male; manufactured by PhoenixBio Co., Inc.) were subjected to laparotomy under isoflurane anesthesia, the spleen was exposed, 0.5×10^5 to 2×10^6 liver progenitor cells per mouse were implanted, and then the abdomen was sutured. On day 73 after implantation, the liver was removed and perfused. Hepatocytes were separated, and cultured for 4 days on 24-well collagen plates (manufactured by IWAKI) at 4×10^5 cells/well using 2% FBS-SHM medium.
(§1) For the hepatocytes taken out from the mice, the activity of the metabolic enzyme CYP1A2 was measured using methanol (MeOH, at a concentration of 1%) and omeprazole (OMP, 50 μM). […] The activities of these metabolic enzymes were measured with Luciferin 1A2 kit and Luciferin-IPA kit from Promega, respectively.

In the next data set the test system is CYP3A4. The method, then:
On day 73 after implantation, the liver was removed and perfused. Hepatocytes were separated, and cultured for 4 days on 24-well collagen plates (manufactured by IWAKI) at 4×10^5 cells/well using 2% FBS-SHM medium.
as §1

For the molecule `COc1ccc2[nH]c([S+]([O-])Cc3ncc(C)c(OC)c3C)nc2c1` (stereo not drawn) [omeprazole], the CYP1A2 induction entry in the data set with CYP1A2 (Example 14: cells from donor 10 M, omeprazole 50 μM vs methanol 1%) is recorded as “induced”; in the data set with CYP1A2 (Example 15: cells from donor 8 M, as in Example 14), “induced”.

For the molecule `CCC1(c2ccccc2)C(=O)NC(=O)NC1=O` [phenobarbital], the CYP3A4 induction entry in the data set with CYP3A4 was “induced”.
